Patent US20250099442A1, “COMPOUNDS FOR USE IN TREATING NEUROLOGICAL DISORDERS” (Prothena Biosciences Limited, priority 2021, published 2025)

Biological target: DYRK1A (Homo sapiens (Human), UniProt Q13627)
Assay: DYRK1A Inhibition Assay
Type: biochemical
Conditions: Compounds of Formula (I); DYRK1A 1 nM, ATP 20 μM, Ser/Thr 18 peptide 2 μM, 90 minutes; read-out: DYRK1 IC50
Procedure: • DYRK1A—Invitrogen #PV4105 • Ser/Thr 18 peptide—Invitrogen #PR8227U • Phos-Ser/Thr 18 peptide—Invitrogen #PR8229U • Assay plate—PerkinElmer #6007279 • ATP—Sigma #A7699-5G • Development reagent A—Invitrogen #PR5194B • Development buffer—Invitrogen #PR4876B
• 1. Test compounds were diluted to 1 mM in DMSO • 2. Stock was further diluted 3-fold using Echo platform • 3. 100 nL of DMSO into Columns 1 and 24 and 100 nL of compounds dilutions to Columns 2-23 in a plate.
• 1. Add 5 μL enzyme & substrate mixture to each well in Column 2-23 and A24-H24 wells of the 384-well assay plate; • 2. Add 5 μL 0% Phosphorylation control to A1-H1 and I24-P24 wells of the assay plate; • 3. Add 5 μL 100% Phosphorylation control to I1-P1 wells of the assay plate; • 4. Spin the assay plate (1000 rpm, 1 minute @23° C.); • 5. Incubate enzyme with compounds for 15 minutes at 23° C.; • 6. Add 5 μL ATP solution to each well of the assay plate; • 7. Spin the plate (1000 rpm, 1 minute @23° C.); • 8. Incubate the assay plate for 90 minutes at 23° C.; • 9. Add 10 μL Development reagent A to each well of the assay plate; • 10. Centrifuge the plate at 1000 rpm about 15 seconds and seal a film over assay plate. Incubate the assay plate for 30 minutes at 23° C. • 11. Read assay plates on Envision (see Tables A and B).
Final Compound Concentrations […]

C(#CC1CCNCC1)c1ccc2c(-c3ccncc3)c[nH]c2n1 [Compound 97]
IC50: 0.1 to 1 µM
